Measured values as given in paper PMC9382030, “A mechanism for exocyst-mediated tethering via Arf6 and PIP5K1C-driven phosphoinositide conversion” (Current biology : CB, 2022).

What was measured:
Assay in all cases: membrane-coated bead recruitment, confocal fluorescence, single-site fit
Type in all cases: binding
Conditions in all cases: apparent affinity in protein concentration; 5 mol% PI(4,5)P2, 85% POPC, 10% phosphatidylserine on silica beads; room temperature, 30 min; 20 mM HEPES, 150 mM NaCl; read-out: KD,relative
exocyst holocomplex = target: T1, exocyst holocomplex (Homo sapiens, UniProt Q9NV70+Q9UPT5)
T1 construct: gene EXOC1; Sf9 baculovirus; hetero-octamer; 6xHis-mNeonGreen-Exoc6 (tag kept), 6xHis-MBP on Exoc5 cut with HRV3C, other subunits untagged; with Exocyst complex component 2; Exocyst complex component 3; Exocyst complex component 4; Exocyst complex component 5; Exocyst complex component 6; Exocyst complex component 8

[1] = target: T2, exocyst subcomplex-2 (Exoc5:6:7:8) (Homo sapiens, UniProt Q9UPT5)
T2 construct: gene EXOC7; Sf9 baculovirus; heterotetramer; with Exocyst complex component 5; Exocyst complex component 6; Exocyst complex component 8

[2] = target: T3, exocyst subcomplex-1 (Exoc1:2:3:4) (Homo sapiens, UniProt Q9NV70)
T3 construct: Sf9 baculovirus; heterotetramer; 6xHis-mNeonGreen-Exoc4 (tag kept), 6xHis-MBP on Exoc1 cut with HRV3C, Exoc2 and Exoc3 untagged; PH domain of Exoc1 is the known PI(4,5)P2 site; with Exocyst complex component 2; Exocyst complex component 3; Exocyst complex component 4
T3 sequence (Q9NV70 whole entry, the tested form may be a part): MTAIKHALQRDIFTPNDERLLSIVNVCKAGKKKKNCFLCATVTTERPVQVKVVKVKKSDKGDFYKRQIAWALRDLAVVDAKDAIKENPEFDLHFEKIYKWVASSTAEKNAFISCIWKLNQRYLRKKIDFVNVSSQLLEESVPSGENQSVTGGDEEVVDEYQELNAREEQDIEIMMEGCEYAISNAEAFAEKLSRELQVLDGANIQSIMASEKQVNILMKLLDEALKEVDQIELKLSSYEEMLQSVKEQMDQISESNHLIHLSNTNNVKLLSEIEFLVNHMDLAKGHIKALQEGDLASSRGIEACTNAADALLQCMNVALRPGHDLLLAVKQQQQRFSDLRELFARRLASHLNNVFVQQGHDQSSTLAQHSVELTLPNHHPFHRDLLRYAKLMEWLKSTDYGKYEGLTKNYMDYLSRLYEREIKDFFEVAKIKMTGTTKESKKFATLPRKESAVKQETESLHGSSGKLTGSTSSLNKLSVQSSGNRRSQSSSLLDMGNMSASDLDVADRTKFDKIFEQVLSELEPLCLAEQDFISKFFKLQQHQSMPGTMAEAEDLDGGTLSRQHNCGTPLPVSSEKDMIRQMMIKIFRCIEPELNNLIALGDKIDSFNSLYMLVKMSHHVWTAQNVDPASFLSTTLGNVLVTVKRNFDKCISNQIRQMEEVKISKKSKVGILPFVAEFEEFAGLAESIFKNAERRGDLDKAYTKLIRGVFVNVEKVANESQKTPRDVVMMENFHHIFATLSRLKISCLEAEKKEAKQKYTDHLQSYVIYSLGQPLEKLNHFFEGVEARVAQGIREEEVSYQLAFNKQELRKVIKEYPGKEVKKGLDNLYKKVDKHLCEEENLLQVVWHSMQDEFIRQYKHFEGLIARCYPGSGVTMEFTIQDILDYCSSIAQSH
T3 sequence (Q96KP1 whole entry partner, the tested form may be a part): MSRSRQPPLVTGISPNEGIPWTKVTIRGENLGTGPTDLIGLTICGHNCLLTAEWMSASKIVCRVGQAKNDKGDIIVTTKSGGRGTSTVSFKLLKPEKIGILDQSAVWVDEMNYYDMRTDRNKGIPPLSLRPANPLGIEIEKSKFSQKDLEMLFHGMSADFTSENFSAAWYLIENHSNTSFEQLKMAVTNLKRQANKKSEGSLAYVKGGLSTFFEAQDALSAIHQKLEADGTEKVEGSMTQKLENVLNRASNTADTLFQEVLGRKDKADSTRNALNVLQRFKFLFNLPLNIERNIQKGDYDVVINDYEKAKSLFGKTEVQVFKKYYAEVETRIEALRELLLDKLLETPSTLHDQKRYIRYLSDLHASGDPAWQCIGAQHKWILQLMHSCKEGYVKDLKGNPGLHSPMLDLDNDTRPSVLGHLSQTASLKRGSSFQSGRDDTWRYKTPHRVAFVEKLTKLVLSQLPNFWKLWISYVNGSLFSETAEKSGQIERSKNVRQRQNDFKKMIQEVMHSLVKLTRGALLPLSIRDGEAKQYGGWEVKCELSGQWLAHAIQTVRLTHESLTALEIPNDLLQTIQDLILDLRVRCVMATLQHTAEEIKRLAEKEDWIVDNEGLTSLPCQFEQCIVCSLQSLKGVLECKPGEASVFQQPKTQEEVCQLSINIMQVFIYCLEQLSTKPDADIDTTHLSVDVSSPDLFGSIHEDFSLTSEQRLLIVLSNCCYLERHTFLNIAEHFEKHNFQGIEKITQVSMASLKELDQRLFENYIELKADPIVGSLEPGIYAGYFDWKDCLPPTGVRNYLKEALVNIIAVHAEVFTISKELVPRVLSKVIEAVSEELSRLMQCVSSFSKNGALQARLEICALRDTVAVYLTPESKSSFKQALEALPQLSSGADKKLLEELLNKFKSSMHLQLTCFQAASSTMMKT
T3 sequence (O60645 whole entry partner, the tested form may be a part): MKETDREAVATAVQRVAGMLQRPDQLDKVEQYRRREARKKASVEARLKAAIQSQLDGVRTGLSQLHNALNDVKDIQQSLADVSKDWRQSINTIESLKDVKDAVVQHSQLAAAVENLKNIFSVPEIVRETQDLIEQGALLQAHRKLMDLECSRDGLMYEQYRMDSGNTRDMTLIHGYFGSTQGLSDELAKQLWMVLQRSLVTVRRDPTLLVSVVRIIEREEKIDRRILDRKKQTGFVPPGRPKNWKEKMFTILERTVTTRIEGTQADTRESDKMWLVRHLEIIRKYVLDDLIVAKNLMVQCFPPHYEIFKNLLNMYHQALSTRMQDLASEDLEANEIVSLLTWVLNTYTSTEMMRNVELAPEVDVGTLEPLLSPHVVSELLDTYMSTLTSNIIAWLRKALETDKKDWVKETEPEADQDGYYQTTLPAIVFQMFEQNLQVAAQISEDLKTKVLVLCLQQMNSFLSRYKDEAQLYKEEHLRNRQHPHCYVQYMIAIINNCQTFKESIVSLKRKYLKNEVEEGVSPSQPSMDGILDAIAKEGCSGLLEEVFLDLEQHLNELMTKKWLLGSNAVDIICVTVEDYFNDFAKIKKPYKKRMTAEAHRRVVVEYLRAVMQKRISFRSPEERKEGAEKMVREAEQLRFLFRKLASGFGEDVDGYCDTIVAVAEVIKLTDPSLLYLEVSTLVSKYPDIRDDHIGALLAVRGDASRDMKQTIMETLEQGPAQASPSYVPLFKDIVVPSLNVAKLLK
T3 sequence (Q96A65 2-974 partner): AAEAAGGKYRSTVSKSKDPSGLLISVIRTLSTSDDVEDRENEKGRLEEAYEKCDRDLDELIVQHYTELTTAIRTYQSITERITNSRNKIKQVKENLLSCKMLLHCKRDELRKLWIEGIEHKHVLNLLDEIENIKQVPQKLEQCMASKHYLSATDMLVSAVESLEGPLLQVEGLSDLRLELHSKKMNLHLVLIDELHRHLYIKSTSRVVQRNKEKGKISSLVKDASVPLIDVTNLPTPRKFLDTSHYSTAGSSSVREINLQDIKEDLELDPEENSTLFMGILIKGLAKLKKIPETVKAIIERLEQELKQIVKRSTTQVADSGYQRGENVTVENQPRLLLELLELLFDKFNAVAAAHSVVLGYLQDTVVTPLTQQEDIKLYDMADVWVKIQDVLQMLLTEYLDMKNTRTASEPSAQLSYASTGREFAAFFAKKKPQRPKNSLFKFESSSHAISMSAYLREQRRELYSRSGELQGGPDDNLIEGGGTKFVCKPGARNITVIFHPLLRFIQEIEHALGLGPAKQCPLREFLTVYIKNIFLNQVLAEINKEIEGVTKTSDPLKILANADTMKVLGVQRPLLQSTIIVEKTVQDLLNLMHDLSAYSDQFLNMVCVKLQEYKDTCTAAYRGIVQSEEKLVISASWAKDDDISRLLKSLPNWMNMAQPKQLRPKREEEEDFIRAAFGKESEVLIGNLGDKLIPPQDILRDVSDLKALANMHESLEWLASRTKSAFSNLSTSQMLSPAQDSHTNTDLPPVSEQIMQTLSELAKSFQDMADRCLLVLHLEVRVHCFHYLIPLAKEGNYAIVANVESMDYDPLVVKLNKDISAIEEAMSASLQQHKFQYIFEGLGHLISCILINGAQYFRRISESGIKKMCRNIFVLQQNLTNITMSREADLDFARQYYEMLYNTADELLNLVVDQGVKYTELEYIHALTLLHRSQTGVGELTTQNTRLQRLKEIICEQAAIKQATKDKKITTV

CCCCCCCCCCCCCCCC(=O)OC[C@H](COP(=O)(O)O[C@@H]1[C@H](O)[C@H](O)[C@@H](OP(=O)(O)O)[C@H](OP(=O)(O)O)[C@H]1O)OC(=O)CCCCCCCCCCCCCCC [PI(4,5)P2]
Kd (exocyst holocomplex): 0.0994 µM | Kd [1]: 0.0385 µM | Kd [2]: 0.0361 µM
